{"source": "patent US20220401461A1", "about": "“Pharmaceutical Composition for Protecting Cartilage” (Kyoto University, priority 2019, published 2022)", "key": {"[1]": {"system": "human femorotibial joint cartilage", "experiment": "Organ culture of human cartilage: number of viable cells (CCK-8)", "assay_type": "cell-based", "details": "cartilage of posterolateral femoral condyle; KUS121 100 μM; 72 hours; FIG. 11", "protocol": "From a knee joint removed from a patient in knee replacement surgery cartilage of femorotibial joint (posterolateral femoral condyle) was collected by using a biopsy punch having a diameter of 7 mm. The cartilage was cultured in the medium without FBS for 48 hours and then in the medium containing KUS121 (100 μM) for 72 hours. Number of viable cells was determined by washing the cartilage with PBS, adding CCK-8, incubating the cartilage for 30 minutes at 37° C., and determining the absorbances (450 nm, 570 nm). Number of viable cells was larger in the presence of KUS121."}, "[2]": {"system": "mouse chondrocytes", "experiment": "TNFα stress: relative number of viable cells (WST8) in mouse chondrocytes", "assay_type": "cell-based", "details": "chondrocytes differentiated from ATDCS cells; TNFα 10 ng/mL; KUS121 50 or 100 μM; 48 hours; FIG. 3", "protocol": "(§1) Cells of mouse teratocarcinoma-derived cell line ATDCS (J Cell Biol. 1996 April; 133(2):457-68) were cultured in DMEM/Ham's F12 medium containing 5% FBS. The cells were passaged to a 12-well plate at the density of 3×10^4 cells/well and cultured in the presence of insulin (10 μg/ml) (start of differentiation induction, Day 0). The cells were differentiated into chondrocytes by differentiation induction for 14 to 21 days. The cells were used in the following experiments.\nOn Day 15 of the differentiation induction, TNFα (10 ng/mL), which induces apoptosis, and KUS121 (50 or 100 μM) were added to the medium and the chondrocytes were cultured for 48 hours. Relative number of viable cells was determined by using WST8."}, "[3]": {"system": "mouse chondrocytes", "experiment": "Glucose starvation stress: relative number of viable cells (WST8) in mouse chondrocytes", "assay_type": "cell-based", "details": "chondrocytes differentiated from ATDCS cells; medium containing no glucose; 100 μM KUS121; five days; FIG. 2", "protocol": "as §1\nThe chondrocytes were cultured in the medium containing no glucose and containing KUS 121 (50 or 100 μM) for five days from Day 17 of the differentiation induction. Relative number of viable cells was determined by using WST8."}, "[4]": {"system": "MMP13 and MMP1 in human chondrocytes", "experiment": "Gene expression of MMP13 and MMP1 by real-time PCR in human chondrocytes cultured in the presence of IL-1β", "assay_type": "cell-based", "details": "IL-1β 2 ng/mL; KUS121 12.5, 25, 50, or 100 μM; 24 hours; in a dose-dependent manner; FIG. 10", "protocol": "Human chondrocytes were cultured on a 24-well plate to 70-80% confluence and cultured in the medium without FBS for 24 hours. The cells were then cultured in the medium containing IL-1β (2 ng/mL) and KUS121 (12.5, 25, 50, or 100 μM) for 24 hours. Messenger RNAs were extracted from the cells and cDNAs were generated by reverse transcription. Gene expression levels of MMP13 and MMP1 were determined by real-time PCR. KUS121 suppressed expression of MMP13 and MMP1, which are collagenases, in a dose-dependent manner."}, "[5]": {"system": "traumatic cartilage damage model rats", "experiment": "Traumatic cartilage damage model (periodic compression to knee joints) in rats", "assay_type": "in vivo", "details": "rat, KUS121 20 mg/ml, 100 μl intraarticularly; for Modified Mankin score of posterolateral femoral condyle: versus control group, FIG. 15", "from_the_text": "It is known that a mouse that has been given periodic compression to a knee joint can be used as a model of post-traumatic cartilage damage (Wu P, Sandell L, et al. Arthritis Rheumatol. 2014; 66(5):1256-65). In a similar manner, a rat post-traumatic cartilage damage model was generated. Specifically, a knee of a hind limb was deeply flexed and fixed on the table of Autograph (Shimadzu Corporation) with the patella facing down. A vertical load of 5 N was applied downward from the heel, then 240 loads of 20 N at the maximum were applied with 5-second intervals. […] This model was used for the following experiments.\nKnee joints of 12-week old male Wister rats (five rats per group) were given periodic compression by the method described above. KUS121 (20 mg/ml) in 5% glucose solution (100 μl) was intraarticularly administered to rats in KUS 121 group immediately before the operation and at Day 1, 2, and 3 after the operation. To rats in the control group 5% glucose solution (100 μl) was administered. The rats were sacrificed two or four weeks after the operation. Damages of posterolateral femoral condyle were histologically evaluated."}, "[6]": {"system": "cCasp3 in mouse chondrocytes", "experiment": "Western blotting for cCasp3 in mouse chondrocytes cultured in the presence of TNFα", "assay_type": "cell-based", "details": "TNFα 20 ng/mL; KUS121 50 or 100 μM; 48 hours; cCasp3 antibody; FIG. 5", "protocol": "as §1\nOn Day 15 of the differentiation induction, TNFα (20 ng/mL) and KUS121 (50 or 100 μM) were added to the medium and the chondrocytes were cultured for 48 hours. The cells were subjected to Western blotting. As primary antibodies, cCasp3 (Cell Signaling #9661S) and actin (Sigma #A5441) were used. Expression of Casp3, an apoptosis marker, was suppressed in the presence of KUS121."}, "[7]": {"system": "caspase 3/7 activity of human chondrocytes", "experiment": "Caspase 3/7 activity (Casp3/7 Glo assay) of human chondrocytes cultured in the presence of tunicamycin", "assay_type": "cell-based", "details": "tunicamycin 3 μg/mL; KUS121 100 μM; 6 hours; FIG. 7", "protocol": "Human chondrocytes were cultured to 70-80% confluence. Tunicamycin (3 μg/mL) and KUS121 (100 μM) were added to the medium and the cells were cultured for further 6 hours. Casp3/7 Glo assay (Promega) was used in accordance with the manufacture's instructions and caspase 3/7 activity was determined by luminometer. The caspase activity was increased by adding tunicamycin, but not increased in the presence of KUS121."}, "[8]": {"system": "Knee osteoarthritis model rats", "experiment": "Knee osteoarthritis model (monoiodoacetate, MIA) in rats", "assay_type": "in vivo", "details": "rat, 50 mg/Kg/day intraperitoneally, two weeks after MIA administration", "protocol": "It is known that intraarticularly administered monoiodoacetate (MIA) damages chondrocytes and suppresses secretin of collagen and proteoglycan to induce osteoarthritis (M. Udo et al., Osteoarthritis Cartilage. 2016, 24:1284-91). Knee osteoarthritis model rats were generated by administering 0.5 mg of monoiodoacetate (MIA) in 25 μl of saline solution into knee joint cavities of both hind limbs of healthy rats. Prior to the MIA administration, 50 mg/Kg/day of KUS121 was administered intraperitoneally for four days. After the MIA administration, the same amount of KUS121 was administered intraperitoneally five days per week.\nTwo weeks after the MIA administration the knee cartilages of the rats were resected, fixed with 10% neutral buffered formalin for about one week, demineralized with Morse's solution (for two weeks) or EDTA (for one month), cleaved along the medial collateral ligament, and embedded in paraffin with the cut surface facing up. Sections were cut every 100-200 μm with a thickness of 3-6 μm. The sections were stained with Safranin-O, which stains chondrocytes, and observed with a fluorescence microscope (KEYENCE BZ9000). […] In addition, three blinded evaluators evaluated ORSI scores for medial femur, lateral femur, medial tibia, and lateral tibia on the basis of the results of the Safranin-O staining. […]"}, "[9]": {"system": "Bip and CHOP in mouse chondrocytes", "experiment": "Western blotting for Bip and CHOP in mouse chondrocytes cultured in the presence of tunicamycin", "assay_type": "cell-based", "details": "tunicamycin 3 μg/mL; KUS121 50 or 100 μM; 6 hours; FIG. 4", "protocol": "as §1\nOn Day 15 of the differentiation induction, tunicamycin (3 μg/mL) and KUS121 (50 or 100 μM) were added to the medium and the chondrocytes were cultured for 6 hours. The cells were subjected to Western blotting. As primary antibodies, Bip (Cell Signaling #3177S), CHOP (Proteintech #15204-1-AP), and actin (Sigma #A5441) were used. Expression of Bip and CHOP was suppressed in the presence of KUS121. Bip is an ER stress marker and CHOP induces apoptosis related to ER stress."}, "[10]": {"system": "mouse chondrocytes", "experiment": "Tm stress: relative number of viable cells (WST8) in mouse chondrocytes cultured in the presence of tunicamycin", "assay_type": "cell-based", "details": "chondrocytes differentiated from ATDCS cells; tunicamycin 0.2 μg/mL; KUS121 50 or 100 μM; 40 hours; FIG. 1", "protocol": "as §1\nOn Day 15 of the differentiation induction, tunicamycin (0.2 μg/mL), which induces ER stress, and KUS121 (50 or 100 μM) were added to the medium and the chondrocytes were cultured for 40 hours. Relative number of viable cells was determined by using 2-(2-methoxy-4-nitrophenyl)-3-(4-nitrophenyl)-5-(2,4-disulfophenyl)-2H-tetrazolium monosodium salt (WST8)."}, "[11]": {"system": "p-JNK in human chondrocytes", "experiment": "Western blotting for p-JNK and JNK in human chondrocytes cultured in the presence of tunicamycin", "assay_type": "cell-based", "details": "tunicamycin 3 μg/mL; KUS121 12.5, 25, 50, or 100 μM; 8 hours; in a dose-dependent manner; FIG. 9", "protocol": "(§2) Human chondrocytes were cultured to 70-80% confluence. Tunicamycin (3 μg/mL) and KUS121 (12.5, 25, 50, or 100 μM) were added to the medium and the cells were cultured for further 8 hours. Proteins were collected from the cells and subjected to Western blotting. As primary antibodies, p-JNK (Cell Signaling Technology, #4668), JNK (Cell Signaling Technology, #9252), and β-actin (Cell Signaling Technology, #5125) were used. KUS121 suppressed expression of phosphorylated JNK (p-JNK), a MAP kinase, in a dose-dependent manner."}, "[12]": {"system": "human chondrocytes", "experiment": "Viable cells (CCK-8) in monolayer human chondrocytes cultured in the presence of tunicamycin", "assay_type": "cell-based", "details": "tunicamycin 3 μg/mL and KUS121 100 μM for 24 hours, then 0.5% FBS medium for 48 hours; FIG. 6", "protocol": "Chondrocytes were collected from a knee joint removed from a patient in knee replacement surgery. The cells were cultured in DMEM-F12 (Gibco, 11330-032) on a 24-well plate to 70-80% confluence and cultured in the medium without FBS for further 24 hours. The cells were then cultured in the medium containing tunicamycin (3 μg/mL) and KUS121 (100 μM) for 24 hours. The medium was replaced with the medium containing 0.5% FBS and the cells were cultured for 48 hours. For counting viable cells, CCK-8 (DOJINDO LABORATORIES) was added, which is a kit for cell counting comprising WST8 as a chromogenic substrate. The cells were incubated for 15 minutes at 37° C. and the absorbances (450 nm, 570 nm) were determined. Viable cells were decreased by adding tunicamycin, but not decreased in the presence of KUS121."}, "[13]": {"system": "Bip, ATF4, and CHOP in human chondrocytes", "experiment": "Western blotting for Bip, ATF4 and CHOP in human chondrocytes cultured in the presence of tunicamycin", "assay_type": "cell-based", "details": "tunicamycin 3 μg/mL; KUS121 12.5, 25, 50, or 100 μM; 8 hours; in a dose-dependent manner; FIG. 8", "protocol": "as §2, with “Bip” for “p-JNK”, “#3177), ATF4” for “#4668), JNK”, “#11815), CHOP (Cell Signaling Technology, #2895),” for “#9252),”, “used. In the absence of tunicamycin expressions of ATF4 and CHOP were observed, but the expression levels were quite low. In the presence of tunicamycin” for “used.”, “Bip, ATF4, and CHOP” for “phosphorylated JNK (p-JNK), a MAP kinase,”"}}, "note": "Counter-ions that a name gives are not always drawn.", "data": [{"smiles": "Cc1cc(F)ccc1-c1ccc(/N=N/c2cc(S(=O)(=O)O)c3ccccc3c2N)cn1", "note": "[KUS121, 4-amino-3-[6-(4-fluoro-2-methylphenyl)pyridine-3-ylazo]naphthalene-1-sulfonic acid sodium salt]", "values": [{"measurement": "Number of viable cells (CCK-8)", "setting": "[1]", "result": "larger"}, {"measurement": "Cell death (relative number of viable cells, WST8)", "setting": "[2]", "result": "significantly suppressed"}, {"measurement": "Cell death (relative number of viable cells, WST8)", "setting": "[3]", "result": "significantly suppressed"}, {"measurement": "Gene expression of MMP1, real-time PCR", "setting": "[4]", "result": "suppressed"}, {"measurement": "Gene expression of MMP13, real-time PCR", "setting": "[4]", "result": "suppressed"}, {"measurement": "Volume of cartilage damage in posterolateral femoral condyle", "setting": "[5]; four weeks after the operation, FIG. 16", "result": "significantly reduced"}, {"measurement": "Number of chondrocytes in posterolateral femoral condyle", "setting": "[5]; four weeks after the operation, FIG. 17", "result": "significantly higher"}, {"measurement": "Modified Mankin score of posterolateral femoral condyle", "setting": "[5]; four weeks after the operation", "result": "no significant difference"}, {"measurement": "Modified Mankin score of posterolateral femoral condyle", "setting": "[5]; two weeks after the operation", "result": "significantly lower"}, {"measurement": "Expression of Casp3, an apoptosis marker, Western blotting", "setting": "[6]", "result": "suppressed"}, {"measurement": "Caspase 3/7 activity", "setting": "[7]", "result": "not increased"}, {"measurement": "Safranin-O staining of knee cartilage sections (indicates chondrocytes)", "setting": "[8]; versus control group (PBS), FIG. 12, 13", "result": "darker"}, {"measurement": "ORSI score (mean of medial femur, lateral femur, medial tibia, lateral tibia)", "setting": "[8]; versus control group, FIG. 14", "result": "lower"}, {"measurement": "Expression of Bip (ER stress marker), Western blotting", "setting": "[9]", "result": "suppressed"}, {"measurement": "Expression of CHOP, Western blotting", "setting": "[9]", "result": "suppressed"}, {"measurement": "Cell death (relative number of viable cells, WST8)", "setting": "[10]", "result": "significantly suppressed"}, {"measurement": "Expression of phosphorylated JNK (p-JNK), Western blotting", "setting": "[11]", "result": "suppressed"}, {"measurement": "Viable cells (CCK-8)", "setting": "[12]", "result": "not decreased"}, {"measurement": "Expression of ATF4, Western blotting", "setting": "[13]", "result": "suppressed"}, {"measurement": "Expression of Bip, Western blotting", "setting": "[13]", "result": "suppressed"}, {"measurement": "Expression of CHOP, Western blotting", "setting": "[13]", "result": "suppressed"}]}]}
